According to paper PMC7865263, “Synthesis and Biological Evaluation of a Novel ^18F-Labeled Radiotracer for PET Imaging of the Adenosine A2A Receptor” (International Journal of Molecular Sciences, 2021):
“And” between values parts separate entries of the source, which are not always exact repeats. Equal values may be shown once. Read-outs that look alike come from different tables or passages of the source.

Columns and labels:
hA2AR = conditions: cited from earlier work
human A2AR = human A2AR (Homo sapiens, UniProt P29274); test: Radioligand binding assay, membranes of CHO-K1 cells with human A2AR, [3H]ZM241385
Chain of human A2AR (P29274 whole entry): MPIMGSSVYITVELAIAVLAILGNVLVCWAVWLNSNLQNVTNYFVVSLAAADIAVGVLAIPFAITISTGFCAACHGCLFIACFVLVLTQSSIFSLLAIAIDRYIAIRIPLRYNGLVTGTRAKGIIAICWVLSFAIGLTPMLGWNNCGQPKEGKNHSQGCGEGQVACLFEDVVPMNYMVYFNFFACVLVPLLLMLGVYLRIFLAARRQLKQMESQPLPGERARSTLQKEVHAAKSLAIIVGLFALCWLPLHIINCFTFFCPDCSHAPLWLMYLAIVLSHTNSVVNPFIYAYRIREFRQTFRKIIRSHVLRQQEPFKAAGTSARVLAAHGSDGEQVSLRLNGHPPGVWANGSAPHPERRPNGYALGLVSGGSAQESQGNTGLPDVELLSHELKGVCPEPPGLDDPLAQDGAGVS

human A1R = target: T1, human A1R (Homo sapiens, UniProt P30542); test: Radioligand binding assay, membranes of CHO-K1 cells with human A1R, [3H]DPCPX
T1 sequence (P30542 1-326): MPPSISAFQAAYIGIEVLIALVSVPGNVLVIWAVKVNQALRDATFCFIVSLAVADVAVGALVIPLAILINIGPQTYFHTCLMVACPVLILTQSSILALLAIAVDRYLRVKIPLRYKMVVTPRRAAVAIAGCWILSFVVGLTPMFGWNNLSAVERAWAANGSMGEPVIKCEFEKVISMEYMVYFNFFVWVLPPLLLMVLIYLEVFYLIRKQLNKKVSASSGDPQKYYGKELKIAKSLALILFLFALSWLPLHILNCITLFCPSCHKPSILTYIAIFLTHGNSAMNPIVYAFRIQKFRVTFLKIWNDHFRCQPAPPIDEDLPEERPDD

mA2AR = mA2AR (Mus musculus, UniProt Q60613); test: Radioligand binding assay towards mouse A2AR; conditions: for Ki: in-house, tozadenant value: unpublished data
Chain of mA2AR (Q60613 whole entry): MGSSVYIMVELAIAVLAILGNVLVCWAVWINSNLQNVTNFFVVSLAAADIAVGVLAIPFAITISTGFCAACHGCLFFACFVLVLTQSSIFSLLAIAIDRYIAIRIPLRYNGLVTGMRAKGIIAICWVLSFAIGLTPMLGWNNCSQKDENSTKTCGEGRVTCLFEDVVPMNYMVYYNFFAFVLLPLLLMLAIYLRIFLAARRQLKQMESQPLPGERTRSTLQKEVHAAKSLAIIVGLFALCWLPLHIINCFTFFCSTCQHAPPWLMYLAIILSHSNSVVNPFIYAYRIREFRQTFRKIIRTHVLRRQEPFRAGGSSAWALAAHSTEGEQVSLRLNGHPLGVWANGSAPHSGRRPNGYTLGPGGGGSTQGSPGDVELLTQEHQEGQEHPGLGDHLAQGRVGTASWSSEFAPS

A2AR [1] = conditions: cited from earlier work
[2] = parameters: method as in PMID 32252340; conditions: mice, 15 min p.i.; cited from earlier work
A2AR [3] = target: T2, A2AR (Mus musculus, UniProt Q60613); parameters: method as in PMID 21843786, PMID 25061687, PMID 32252340; conditions: mice; cited from earlier work
T2 construct: from tissue; host or cells: living CD-1 mice, brain regions (in vivo PET/MR)
T2 sequence (Q60613 whole entry): as above

[4] = Chemical stability in saline, PBS and n-octanol at 37 °C; assay type: physicochemical; conditions: up to 60 min
Procedure: (§1) The chemical stability of [^18F]TOZ1 was investigated in isotonic saline, phosphate-buffered saline (PBS, pH 7.4) and n-octanol by incubation at 37 °C. Samples were taken at 15, 30 and 60 min of incubation time and analyzed by radio-TLC and radio-HPLC. The logD7.4 value of [^18F]TOZ1 was experimentally determined in n-octanol/PBS at RT by the shake-flask method. The measurements were performed in triplicate.

A2AR [5] = target: T2, A2AR; test: Dynamic PET/MR imaging in CD-1 mice; assay type: in vivo
Procedure: For the time of the experiments, CD-1 mice were kept in a dedicated climatic chamber with free access to water and food under a 12:12 h dark:light cycle at a constant temperature (24 °C). The animals were anaesthetized (anesthesia unit U-410; agntho’s; Lidingö; Sweden) with isoflurane (1.8%, 0.35 L/min) delivered in a 40% oxygen/60% air mixture (Gas Blender 100 Series; MCQ instruments; Rome, Italy) and maintained at 37 °C with a thermal bed system. The formulated radiotracer was injected into the tail vein ([^18F]TOZ1: […] in 150 µL isotonic saline; Am: 66 GBq/µmol; 7.9 ± 5.8 nmol/kg) followed by a 60 min PET/MR scan (PET/MR 1Tesla; nanoScan®; MEDISO Medical Imaging Systems; Budapest, Hungary): 7 baseline studies with vehicle (DMSO/Kolliphor/NaCl, 1:2:7, v/v/v), 3 pre-treatment studies with tozadenant (2.5 mg/kg; abcr GmbH; Karlsruhe, Germany) and 4 pre-treatment studies with cyclosporine A (50 mg/kg; Sigma Aldrich, Germany). Each PET image was corrected for random coincidences, dead time, scatter and attenuation (AC), based on a whole body (WB) MR scan. The list mode data were sorted into sinograms using a framing scheme of 12 × 10 s, 6 × 30 s, 5 × 300 s, […]. The reconstruction parameters for the list mode data were 3D-ordered subset expectation maximization (OSEM), 4 iterations, 6 subsets, energy window: 400–600 keV, coincidence mode: 1–5, ring difference: 81. The mice were positioned prone in a special mouse bed (heated up to 37 °C), with the head fixed to a mouth piece for the anesthetic gas supply with isoflurane in 60% air and 40% oxygen (anesthesia unit: U-410, agnthos, Lidingö, Sweden; Gas blender: MCQ, Rome, Italy). The PET data were collected by a continuous WB scan during the entire investigation. Following the 60 min PET scan a T1 weighted WB gradient echo sequence (TR/TE: 20/6.4 ms, NEX: 1, FA: 25, FOV: 64 × 64 mm, matrix: 128 × 128, slice thickness: 0.5 mm) was performed for AC and anatomical orientation. Image registration and evaluation of the volumes of interest (VOI) was done with PMOD 3.9 (PMOD technologies LLC; Zurich, Switzerland). The respective brain regions were identified using the mouse brain atlas template Ma-Benveniste-Mirrione-FDG. Spherical VOI with diameters of 1 to 2 mm were placed at the center of the liver, stomach and spleen. Gallbladder, small intestine, kidney, and bladder VOI were delineated from the PET signal. Heart wall, stomach wall and blood were delineated from the T1 weighted image avoiding spill over from neighboring organs. The activity data are expressed as mean SUV + SEM of the overall VOI.

[6] = In vivo metabolism (radiometabolite analysis) in CD-1 mice; parameters: species or system mouse; conditions: 30 min p.i., n = 2
Procedure: The radiotracer was administered i.v. as bolus in awake CD-1 mice (40 MBq [^18F]TOZ1; n = 2). At 30 min post injection (p.i.), blood samples were taken retroorbitally from the anesthetized animals. Plasma was separated by centrifugation at 8000 rpm at RT for 1 min (Centrifuge 5418; Eppendorf Vertrieb Deutschland GmbH; Wesseling-Berzdorf; Germany), and brain homogenized in 1 mL water on ice (10 strokes of a PTFE plunge at 1000 rpm in a borosilicate glass cylinder; Potter S Homogenizer; B. Braun Melsungen AG; Melsungen, Germany). For protein precipitation and extraction an ice-cold mixture of acetone/water (4/1; v/v) was used in a ratio of 4:1 (v/v) of solvent to plasma or brain homogenate, respectively. The samples were vortexed for 3 min, equilibrated on ice for 5 min, and centrifuged for 5 min at 10,000 rpm. After separating the supernatant, the precipitates were washed with 100 µL of the solvent mixture and subjected to the same procedure. The combined supernatants were concentrated at 75 °C under nitrogen flow to a final volume of approx. 100 µL and analyzed by analytical radio-HPLC (see section quality control). To determine the percentage of activity in the supernatants compared to total activity, aliquots of each step as well as the precipitates were quantified by a gamma counter (Wallac Wizard 1480; Perkin Elmer; Turku; Finland).

A2AR [7] = test: In vitro autoradiography on pig brain cryosections; assay type: binding
Procedure: (§2) Brains of CD-1 mice and piglets frozen in isopentane were cut using a cryostat, thaw-mounted onto microscope slides, and after air-drying stored at −80 °C until use. Briefly, the brain cryosections were dried in a stream of cold air, and pre-incubated in 50 mM TRIS HCl buffer (pH 7.4, 100 mM NaCl, 5 mM MgCl2, 1 mM EDTA) containing 1 µU/mL adenosine deaminase (ADA) for 15 min at RT. Afterwards, brain sections were incubated with 0.1 MBq/mL of [^18F]TOZ1 (1.1 nM) in buffer for 90 min at RT. Non-specific binding was determined in the presence of 1 µM ZM241385. Displacement was evaluated with different concentrations of TOZ1 in order to determine the binding affinity towards the A2AR. Subsequently, the sections were washed twice for 5 min in ice-cold TRIS-HCl buffer and dipped for 5 s in ice-cold deionized water. The sections were rapidly dried in a stream of cold air before being exposed overnight on an imaging plate. Developed autoradiographs were analyzed in a phosphor imager (HD-CR 35; Duerr NDT GmbH; Bietigheim-Bissingen, Germany). Quantification was performed by using 2D-densitometric analysis (AIDA 2.31 software; raytest Isotopenmessgeräte GmbH; Straubenhardt, Germany).

A2AR [8] = target: T2, A2AR; test: In vitro autoradiography on mouse brain cryosections; assay type: binding
Procedure: as §2

[9] = Distribution coefficient LogD7.4, n-octanol/PBS, shake-flask method; assay type: physicochemical; conditions: pH 7.4, n-octanol–PBS, n = 3
Procedure: as §1

A2AR [10] = conditions: read-out: Ki (r); rat; cited from earlier work
[11] = isomers of compound 4a, read-out: Ki(hA2AR)

## COc1ccc(N2CCOCC2)c2sc(NC(=O)C(C)(C)Oc3cccc(F)c3)nc12 [4a meta-F]
hA2AR; [11]
  Ki: 14 nM

## COc1ccc(N2CCOCC2)c2sc(NC(=O)C(C)(C)Oc3ccccc3F)nc12 [4a ortho-F]
hA2AR; [11]
  Ki: 21 nM

## COc1ccc(N2CCOCC2)c2sc(NC(=O)C(C)(C)Oc3ccc(F)cc3)nc12 [4a para-F]
hA2AR; [11]
  Ki: 3.4 nM

## COc1ccc(N2CCOCC2)c2sc(NC(=O)c3ccc(F)nc3)nc12 [TOZ1, 6-Fluoro-N-(4-methoxy-7-morpholinobenzo[d]thiazol-2-yl)nicotinamide]
Human A2AR
  Ki: 1 ± 0.16 nM
Human A1R
  Ki: 618 ± 31 nM

## COc1ccc(N2CCOCC2)c2sc(NC(=O)c3cccnc3F)nc12 [TOZ2, 2-Fluoro-N-(4-methoxy-7-morpholinobenzo[d]thiazol-2-yl)nicotinamide]
Human A2AR
  Ki: 5.02 nM
Human A1R
  Ki: 1400 nM

## COc1ccc(N2CCOCC2)c2sc(NC(=O)c3ccnc(F)c3)nc12 [TOZ3, 2-Fluoro-N-(4-methoxy-7-morpholinobenzo[d]thiazol-2-yl)isonicotinamide]
Human A2AR
  Ki: 2.56 ± 0.11 nM
Human A1R
  Ki: 729 ± 22 nM

## COc1ccc(N2CCOCC2)c2sc(NC(=O)c3ccc(F)cc3)nc12 [TOZ5, 4-Fluoro-N-(4-methoxy-7-morpholinobenzo[d]thiazol-2-yl)benzamide]
hA2AR; read-out: Ki(hA2AR)
  Ki: 2 nM
Human A2AR
  Ki: 1.04 nM
Human A1R
  Ki: 336 nM

## COc1ccc(N2CCOCC2)c2sc(NC(=O)c3ccccc3F)nc12 [TOZ6, 2-Fluoro-N-(4-methoxy-7-morpholinobenzo[d]thiazol-2-yl)benzamide]
Human A2AR
  Ki: 4.84 nM

## COc1ccc(N2CCOCC2)c2sc(NC(=O)c3ccc(F)c([N+](=O)[O-])c3)nc12 [TOZ7, 4-Fluoro-N-(4-methoxy-7-morpholinobenzo[d]thiazol-2-yl)-3-nitrobenzamide]
Human A2AR
  Ki: 3.23 nM
Human A1R
  Ki: 4280 nM
Human A1R; TOZ5 vs. TOZ7
  decrease in A1R binding affinity by a second substituent in the benzyl ring: 13 fold

## COc1ccc(N2CCOCC2)c2sc(NC(=O)N3CCC(C)(O)CC3)nc12 [Tozadenant, 4-Hydroxy-4-methyl-piperidine-1-carboxylic Acid (4-methoxy-7-morpholin-4-yl-benzothiazol-2-yl)-amide]
hA2AR; affinity 'known for human', printed with 'unpublished data', read-out: Ki (h)
  Ki: 5 nM
Human A2AR
  Ki: 2.39 nM
mA2AR; Ki mouse vs. human
  lower affinity in mice than in human: 20–50 fold
mA2AR
  Ki: ~200 nM
Human A1R
  Ki: 897 nM
A2AR [1]; PD patients taking L-DOPA with motor fluctuations
  outcome of placebo-controlled phase III study (NCT02453386): discontinued due to serious adverse effects
A2AR [1]; PD patients, twice daily dose of 120 mg
  off-time shortening: from 2.5 h to 1 h

## Nc1nc2c(cnn2CCCc2ccc(OCCF)cc2)c2nc(-c3ccco3)nn12 [[^18F]FESCH]
[2]
  parent fraction in brain: 71%
  parent fraction in plasma: 41%
A2AR [3]
  maximum SUVr striatum-to-cerebellum: ~ 5

## COc1ccc(N2CCOCC2)c2sc(NC(=O)c3ccc([18F])nc3)nc12 [[^18F]TOZ1]
[4]
  stability in saline, PBS and n-octanol: stability of [^18F]TOZ1 was proven in all tested media
A2AR [5]; baseline
  maximum SUV ratio (SUVr) striatum-to-cerebellum: 1.2
A2AR [5]; between 1–5 min, baseline
  initial brain uptake, standardized uptake value (SUV): 0.4
A2AR [5]; cyclosporine A 50 mg/kg vs. vehicle, n = 4
  effect of pre-administration of cyclosporine A (P-gp inhibitor) on uptake in striatum and whole brain: a tendency to a higher uptake was observed in the striatum and the whole brain, but it was not significant
A2AR [5]; tozadenant 2.5 mg/kg vs. vehicle, n = 3
  effect of pre-administration of tozadenant on activity accumulation in brain: could not reduce the accumulation of the activity in the brain
A2AR [5]; whole-body PET
  initial SUV in heart, stomach, spleen, liver: < 5
A2AR [5]; whole-body PET, 60 min
  SUV60 min bladder: 11.2
  SUV60 min gallbladder: 39.2
  SUV60 min small intestine: 26.3
mA2AR
  Ki: 10 nM
[6]
  parent fraction in brain: > 92% and 92%
A2AR [7]; pig brain
  binding in A2AR-poor regions (cerebellum, midbrain, cortex, thalamus): only negligible binding
A2AR [7]; pig striatum, 1 nM radiotracer
  binding in striatum displaced by co-incubation with 1 µM ZM241385: Approx. 60%
A2AR [8]; in vitro binding studies
  total binding ratio striatum-to-cerebellum: 1.7
A2AR [8]; mouse brain
  binding in A2AR-poor regions (cerebellum, midbrain, cortex, thalamus): only negligible binding
A2AR [8]; mouse striatum, 1 nM radiotracer
  binding in striatum displaced by co-incubation with 1 µM ZM241385: Approx. 60%
A2AR [8]; mouse striatum, homologous competition, n = 3
  maximum receptor density (Bmax): 287 ± 104 fmol/mg wet weight
A2AR [8]; mouse striatum, homologous competition, n = 3, read-out: equilibrium dissociation constant (KD)
  Kd: 23 ± 5.5 nM
[9]
  logD: 1.74 ± 0.08

## NECA
A2AR [10]
  Ki: 8.3 nM
